{"source": "patent US4731357A", "about": "(Imperial Chemical Industries PLC, priority 1985, dated 1988)", "key": {"[1]": {"test_system": "sectioned Achilles tendon", "assay": "Graded doses of urogastrone on healing of sectioned Achilles tendons in rats (Example 2, FIGS. 3 and 4)", "format": "in vivo, rat", "settings": "15 days after surgery", "experimental": "The graded doses were injected twice daily into the immediate vicinity of the sectioned tendon.\nFIG. 4 corresponds to FIG. 3, but represents graphically the collagen content of the repair lesions at the injected zone 15 days after surgery rather than the dry weight of the scar tissue formed at the said zone 15 days after surgery.\nThe rats employed were male Wistar rats (240 g) and the Achilles tendons were sectioned as described in Example 1.\nGraded doses of urogastrone were given twice daily by injection into the immediate vicinity of the sectioned Achilles tendon in rats. […] FIGS. 3 and 4 present the dry weights and collagen contents respectively of the injected zones 15 days after surgery."}, "intact tendons": {"test_system": "intact tendons", "assay": "Urogastrone 100 ug/kg injected twice daily into intact tendons in unoperated rats (Example 2)", "format": "in vivo, rat", "settings": "highest dose (100 ug./kg. twice daily); 15 days"}, "[2]": {"test_system": "sectioned Achilles tendons", "assay": "Longer term effects of urogastrone injections on healing of sectioned Achilles tendons in the rat (experiment 2, Table 2)", "format": "in vivo", "settings": "for Lesion DNA / Lesion dry wt / Lesion Collagen: ±SEM", "experimental": "(§1) Male Wistar rats (240 g.) were subjected under general anaesthesia to partial tendonotomy of the left Achilles tendon, the small skin wound was then sutured and the animals allowed to recover. […] Normal saline was injected into a control group of operated animals (group [C]). […] After termination the scar tissue was removed from the point of insertion into the calcaneus bone to the point of merger of the tendon into the muscle mass. Weights of the scar tissue were measured after drying and defatting as described in Greenwald, S. E. and Berry, C. L. Cardiovasc. Res. 12,364-372 (1978). The collagen content was obtained from hydroxyproline measurements as described in Grant, R. A. J. Clin. Path. 17, 685-686 (1964) on the tissue after proteolytic (see Smith, R. L., Gilberson, E., Koliatsu, N., Merchant, T. and Schurman, D. J. Analyst. Biochem. 103, 191-200 (1980)) and alkaline (see Huzar, G., Maiocco, J. and Naftolin, F. Analyt. Biochem. 105 424-439 (1980)) digestion. The DNA content of the digests was determined using a sensitive fluorimetric technique (as described in Hinegardner, R. T. Analyt. Biochem. 39, 197-201). The results are ±SEM and were analyzed by Student' s t test. Figures in parentheses indicate the numbers of animals used in each group."}, "[3]": {"test_system": "acid secretion in the stomach", "settings": "administered parenterally; known; cited from earlier work"}, "Intact tendon": {"test_system": "Intact tendon", "assay": "Urogastrone injected twice daily into the corresponding region of the unoperated leg (intact tendon, group B, Table 1)", "format": "in vivo, rat", "settings": "for Collagen / DNA / dry wt: intact tendon plus urogastrone 20 μg./kg. twice daily, ±SEM", "experimental": "as §1"}, "[4]": {"test_system": "sectioned Achilles tendons", "assay": "Healing of sectioned Achilles tendons in the rat, urogastrone injected twice daily at the tendon lesion (experiment 1, Table 1)", "format": "in vivo", "experimental": "as §1"}, "[5]": {"settings": "30 days after surgery, urogastrone days 1-15 then 15 days without treatment, NS vs saline"}, "[6]": {"settings": "5 days after surgery, sectioned tendon, 20 μg./kg. twice daily at lesion, ±SEM, p < 0.001 vs saline"}, "[7]": {"settings": "9 days after surgery, sectioned tendon, 20 μg./kg. twice daily at lesion, ±SEM, p < 0.001 vs saline"}, "[8]": {"settings": "first five days following surgery, statistically highly significant"}}, "data": [{"substance": "Urogastrone", "values": [{"measurement": "Collagen contents of the repair lesions", "setting": "[1]; 20 μg./kg. twice daily", "result": "not in the collagen contents"}, {"measurement": "Dry weights of the repair lesions", "setting": "[1]; 20 μg./kg. twice daily", "result": "statistically significant increase"}, {"measurement": "Collagen contents of the repair lesions", "setting": "[1]; 50 μg./kg. twice daily", "result": "significantly increased"}, {"measurement": "Dry weights of the repair lesions", "setting": "[1]; 50 μg./kg. twice daily", "result": "significantly increased"}, {"measurement": "Collagen contents of the repair lesions", "setting": "[1]; 100 μg./kg. twice daily", "result": "significantly increased"}, {"measurement": "Dry weights of the repair lesions", "setting": "[1]; 100 μg./kg. twice daily", "result": "significantly increased"}, {"measurement": "Collagen contents", "setting": "intact tendons", "result": "increased"}, {"measurement": "Dry weight", "setting": "intact tendons", "result": "increased"}, {"measurement": "Lesion DNA", "setting": "[2]; 15 days after surgery, urogastrone days 1-15, 20 ug./kg. twice daily, NS vs saline", "result": "668 ± 32", "unit": "µg"}, {"measurement": "Lesion dry wt", "setting": "[2]; 15 days after surgery, urogastrone days 1-15, 20 ug./kg. twice daily, p < 0.001 vs saline", "result": "61.8 ± 1.3", "unit": "mg"}, {"measurement": "Lesion Collagen", "setting": "[2]; 15 days after surgery, urogastrone days 1-15, 20 ug./kg. twice daily, p < 0.01 vs saline", "result": "28.1 ± 0.9", "unit": "mg"}, {"measurement": "Lesion Collagen", "setting": "[2]; [5]", "result": "28.7 ± 1.2", "unit": "mg"}, {"measurement": "Lesion dry wt", "setting": "[2]; [5]", "result": "50.2 ± 1.1", "unit": "mg"}, {"measurement": "Lesion DNA", "setting": "[2]; 30 days after surgery, urogastrone days 1-15 then 15 days without treatment, p < 0.05 vs saline", "result": "397 ± 17", "unit": "µg"}, {"measurement": "Lesion DNA", "setting": "[2]; 30 days after surgery, urogastrone days 1-30, 20 ug./kg. twice daily, NS vs saline", "result": "495 ± 17", "unit": "µg"}, {"measurement": "Lesion Collagen", "setting": "[2]; 30 days after surgery, urogastrone days 1-30, 20 ug./kg. twice daily, p < 0.001 vs saline", "result": "32.1 ± 1.3", "unit": "mg"}, {"measurement": "Lesion dry wt", "setting": "[2]; 30 days after surgery, urogastrone days 1-30, 20 ug./kg. twice daily, p < 0.01 vs saline", "result": "56.8 ± 2.0", "unit": "mg"}, {"measurement": "Dry weight and collagen content of the scars versus animals untreated throughout", "setting": "[2]; dosing stopped after fifteen days, treatment free for a further fifteen days", "result": "no longer distinguishable"}, {"measurement": "Collagen content of repair lesion higher than saline-treated control lesions", "setting": "[2]; thirty days on urogastrone", "result": 27, "unit": "%"}, {"measurement": "DNA contents of urogastrone versus saline-treated lesions", "setting": "[2]; thirty days on urogastrone", "result": "essentially the same"}, {"measurement": "Dry weight of repair lesion higher than saline-treated control lesions", "setting": "[2]; thirty days on urogastrone", "result": 19, "unit": "%"}, {"measurement": "Acid secretion in the stomach", "setting": "[3]", "result": "inhibit acid secretion in the stomach"}, {"measurement": "Collagen", "setting": "Intact tendon; 5 days, NS vs intact tendon", "result": "6.1 ± 0.3", "unit": "mg"}, {"measurement": "DNA", "setting": "Intact tendon; 5 days, NS vs intact tendon", "result": "94.3 ± 8.5", "unit": "µg"}, {"measurement": "dry wt", "setting": "Intact tendon; 5 days, NS vs intact tendon", "result": "12.7 ± 1.6", "unit": "mg"}, {"measurement": "Collagen", "setting": "Intact tendon; 9 days, NS vs intact tendon", "result": "7.0 ± 0.5", "unit": "mg"}, {"measurement": "dry wt", "setting": "Intact tendon; 9 days, NS vs intact tendon", "result": "14.1 ± 1.2", "unit": "mg"}, {"measurement": "DNA", "setting": "Intact tendon; 9 days, p < 0.05 vs intact tendon", "result": "124 ± 10", "unit": "µg"}, {"measurement": "Collagen", "setting": "Intact tendon; 15 days, NS vs intact tendon", "result": "7.0 ± 0.3", "unit": "mg"}, {"measurement": "DNA", "setting": "Intact tendon; 15 days, NS vs intact tendon", "result": "101 ± 6", "unit": "µg"}, {"measurement": "Effect on unoperated tendon in the opposite leg", "setting": "Intact tendon; injected twice daily, throughout the treatment period, possible exception of increased DNA content after nine days", "result": "little or no effect"}, {"measurement": "Lesion DNA", "setting": "[4]; [6]", "result": "517 ± 12", "unit": "µg"}, {"measurement": "Lesion dry wt", "setting": "[4]; [6]", "result": "42.9 ± 2.0", "unit": "mg"}, {"measurement": "Lesion DNA", "setting": "[4]; [7]", "result": "653 ± 20", "unit": "µg"}, {"measurement": "Lesion dry wt", "setting": "[4]; [7]", "result": "61.1 ± 2.0", "unit": "mg"}, {"measurement": "Lesion Collagen", "setting": "[4]; 9 days after surgery, sectioned tendon, 20 μg./kg. twice daily at lesion, ±SEM, p < 0.05 vs saline", "result": "16.8 ± 0.9", "unit": "mg"}, {"measurement": "Lesion DNA", "setting": "[4]; 15 days after surgery, sectioned tendon, 20 μg./kg. twice daily at lesion, ±SEM, NS vs saline", "result": "556 ± 23", "unit": "µg"}, {"measurement": "Lesion dry wt", "setting": "[4]; 15 days after surgery, sectioned tendon, 20 μg./kg. twice daily at lesion, ±SEM, p < 0.001 vs saline", "result": "53.3 ± 2.8", "unit": "mg"}, {"measurement": "Apparent increase in DNA content of urogastrone-treated lesions", "setting": "[4]; day 15, not significantly different from the control value", "result": 8, "unit": "%"}, {"measurement": "Increase in collagen over saline-injected controls", "setting": "[4]; fifteen days after surgery", "result": 28, "unit": "%"}, {"measurement": "Increase in dry weight over saline-injected controls", "setting": "[4]; fifteen days after surgery", "result": 24, "unit": "%"}, {"measurement": "Increase in collagen content of scar tissue compared with saline-injected controls", "setting": "[4]; [8]", "result": 61, "unit": "%"}, {"measurement": "Increase in dry weight of scar tissue compared with saline-injected controls", "setting": "[4]; [8]", "result": 38, "unit": "%"}]}]}
